Results on 92 molecules are retold here after ChEMBL document CHEMBL4482324, “Ash1l inhibitors and methods of treatment therewith” (2017).

The experiment has as its target Histone-lysine N-methyltransferase ASH1L (Homo sapiens, UniProt Q9NR48). As to the kind of experiment: Inhibition of MOCR-fused ASH1L SET-BAH ( 2069 to 2833 amino acids) (unknown origin) expressed as in Escherichia coli BL21 (DE3) T1R cells using SAM and chicken mono/dinucleosomes incubated for 1 hr by scintillation counting assay.

For `Cc1cc(C)n2c1C=C1C=CC(CCCCC(=O)NCCOCCOc3ccc(-c4cccc(C(N)=S)c4)c4cc[nH]c34)=[N+]1[B-]2(F)F`, the IC50 is > 100 µM.

As to `NC(=S)c1cccc(-c2cn(C3CCOCC3)c3cc(CNC(=O)Cc4c[nH]cn4)ccc23)c1`, the IC50 was < 20 µM.

On to `NC(=S)c1cccc(-c2cn(CC(CF)C(F)F)c3cc(N)ccc23)c1` (configuration not stated), for which the IC50 is < 20 µM.

With `NC(=S)c1cccc(-c2cn(C3CCOCC3)c3cc(N)ccc23)c1`, the IC50 was < 20 µM.

Take `Cc1[nH]c2ccccc2c1-c1cccc(C(N)=S)c1`: the IC50 is > 100 µM.

On to `NC(=S)c1cc(-c2cn(CCC(F)F)c3cc(CO)ccc23)c2scnc2c1`, for which the IC50 is < 20 µM.

On to `NC(=S)c1cccc(-c2cn(C3CCCC3)c3cc(N)ccc23)c1`, for which the IC50 is < 20 µM.

As for `NC(=S)c1cccc(-c2cn(CC3CCC3)c3cc(CO)ccc23)c1`, the IC50 was < 20 µM.

In the case of `O=C1NCc2c1cccc2-c1ccc(O)cc1`, the IC50 was > 100 µM.

`NC(=S)c1cccs1`: the IC50 was > 100 µM.

For `NC(=S)c1cccc(-c2cn(CCCC(F)(F)F)c3cc(CNC(=O)c4ccccc4)ccc23)c1`, the IC50 was < 20 µM.

As for `CS(=O)(=O)NCc1ccc2c(-c3cccc(C(N)=S)c3)cn(CCCC(F)(F)F)c2c1`, the IC50 is < 20 µM.

In the case of `NC(=S)c1cccc(-c2cn(CC3CC3)c3cc(CO)ccc23)c1`, the IC50 was < 20 µM.

On to `NC(=S)c1cccc(-c2cccc3[nH]ccc23)n1`, for which the IC50 was > 100 µM.

As to `NC(=S)c1cccc(-c2cc(CCC(F)F)c3cc[nH]c3c2)c1`, the IC50 was < 20 µM.

With `COc1cc(C(N)=S)cc(-c2cccc3[nH]ccc23)c1`, the IC50 is > 100 µM.

In the case of `COCc1cc2c(-c3cccc(C(N)=S)c3)ccc(O)c2[nH]1`, the IC50 was 20 to 100 µM.

Regarding `NC(=S)c1cccc(-c2cn(CC3C(F)(F)CC3(F)F)c3cc(CO)ccc23)c1`, the IC50 is < 20 µM.

As for `NC(=S)c1cccc(-c2cccc3c2ccn3CCO)c1`, the IC50 was > 100 µM.

Turning to `NC(=S)c1cccc(-c2cn(CC(CF)CF)c3cc(NC(=O)c4cnc[nH]4)ccc23)c1`, the IC50 was < 20 µM.

As to `CC(N)c1cccc(-c2cccc3[nH]ccc23)c1` (configuration not stated), the IC50 was > 100 µM.

In the case of `NC(=S)c1cccc(-c2cn(CC3C(F)(F)C3(F)F)c3cc(CO)ccc23)c1`, the IC50 is < 20 µM.

As to `NC(=S)c1cc(O)cc(-c2cn(CCCC(F)(F)F)c3cc(N)ccc23)c1`, the IC50 lay in the range of 20 to 100 µM.

For `NC(=O)c1cccc(-c2cn(CC(CF)CF)c3cc(N)ccc23)c1`, the IC50 was < 20 µM.

On to `NCCn1cc(-c2cccc(C(N)=S)c2)c2ccccc21`, for which the IC50 was 22 µM. That is a double-digit micromolar value.

In the case of `Cc1cc(-c2cccc(C(N)=S)c2)ccc1O`, the IC50 is > 100 µM.

Turning to `NC(=S)c1cccc(-c2cn(CCC(F)F)c3cc(CF)ccc23)c1`, the IC50 was < 20 µM.

Take `NC(=S)c1cccc(-c2cn(CCC(O)C(F)(F)F)c3cc(N)ccc23)c1` (configuration not stated): the IC50 fell in the range of 20 to 100 µM.

For `NC(=S)c1cc(-c2cn(CC(CF)CF)c3cc(CO)ccc23)ccc1O`, the IC50 was < 20 µM.

For the molecule `NC(=S)c1cccc(-c2cn(C3CCN(S(=O)(=O)CCCNC(=O)c4ccc5c(c4)C(=O)OC54c5ccc(O)cc5Oc5cc(O)ccc54)CC3)c3cc(CNC(=O)Cc4c[nH]cn4)ccc23)c1`, the concentration for half-maximal inhibition (IC50) was < 20 µM.

In the case of `CCOc1c[nH]c(CC(=O)NCc2ccc3c(-c4cccc(C(N)=S)c4)cn(C4CCN(S(C)(=O)=O)CC4)c3c2)c1`, the IC50 is < 20 µM.

As for `CS(=O)(=O)N1CCC(n2cc(-c3cccc(C(N)=S)c3)c3ccc(Nc4nccs4)cc32)CC1`, the IC50 was < 20 µM.

`Cn1cc(-c2cccc(C(N)=S)c2)c2ccccc21` displayed an IC50 of 20 to 100 µM.

With `CCCS(=O)(=O)N1CCC(n2cc(-c3cccc(C(N)=S)c3)c3ccc(CNC(=O)Cc4cc(C)[nH]n4)cc32)CC1`, the concentration for half-maximal inhibition (IC50) is < 20 µM.

Consider `NC(=S)c1cccc(-c2cccc(O)c2)c1`, for which the IC50 was > 100 µM.

As for `NC(=S)c1cccc(-c2cn(CCO)c3ccccc23)c1`, the IC50 lay in the range of 20 to 100 µM.

`NC(=S)c1cccc(-c2cn(CCCC(F)(F)F)c3cc(CN4CCOCC4)ccc23)c1` gave an IC50 of 20 to 100 µM.

Take `NC(=S)c1cccc(-c2cn(CC3CC(O)C(O)C3)c3cc(CO)ccc23)c1` (configuration not stated): the IC50 was < 20 µM.

Turning to `NC(=S)c1cccc(-c2cn(C3CCN(S(=O)(=O)CCNC(=O)COc4cccc5c4C(=O)N(C4CCC(=O)NC4=O)C5=O)CC3)c3cc(CNc4nnc(N)s4)ccc23)c1` (configuration not stated), the IC50 is < 20 µM.

As to `NC(=S)c1ccc(F)c(-c2cn(CCCC(F)(F)F)c3cc(N)ccc23)c1`, the IC50 was < 20 µM.

For `NC(=S)c1cccc(-c2cn(CC3(F)CC3)c3cc(CO)ccc23)c1`, the IC50 was < 20 µM.

On to `NC(=S)c1cccc(-c2ccccc2O)c1`, for which the IC50 is > 100 µM.

On to `CS(=O)(=O)N1CCC(n2cc(-c3cccc(C(N)=S)c3)c3ccc(CNC(=O)Cc4cc5ccccc5[nH]4)cc32)CC1`, for which the IC50 was < 20 µM.

`NC(=S)c1cccc(-c2cc(CCC(F)F)c3[nH]ccc3c2)c1`: the IC50 is < 20 µM.

As to `NC(=S)c1cc(-c2ccccc2)cs1`, the IC50 was > 100 µM.

On to `NC(=S)c1cccc(-c2ccc(O)cc2)c1F`, for which the IC50 is > 100 µM.

For `NC(=S)c1cccc(-c2cn(CCCC(F)(F)F)c3cc(CNCc4cccnc4)ccc23)c1`, the IC50 was < 20 µM.

The molecule `Cc1cc2c(-c3cccc(C(N)=S)c3)ccc(O)c2[nH]1` yielded an IC50 of 20 to 100 µM.

For `NC(=S)c1cccc(-c2cn(CC(C(F)F)C(F)F)c3cc(CO)ccc23)c1`, the IC50 was < 20 µM.

On to `NC(=S)c1cccc(-c2cn(CC(CF)CF)c3cc(CO)ccc23)c1`, for which the IC50 is < 20 µM.

Take `NC(=S)c1cccc(-c2cn(CCC(F)F)c3cc(NC(=O)CC4CC4)ccc23)c1`: the IC50 was < 20 µM.

In the case of `CC(O)c1ccc2c(-c3cccc(C(N)=S)c3)cn(CCC(F)F)c2c1` (configuration not stated), the IC50 is < 20 µM.

Consider `NC(=S)c1cccc(-n2cc(CC(CF)CF)c3cc(CO)ccc32)c1`, for which the IC50 is < 20 µM.

For the molecule `CC(O)c1ccc2c(-c3cccc(C(N)=S)c3)cn(CC(CF)CF)c2c1` (configuration not stated), the IC50 was < 20 µM.

Regarding `NC(=S)c1cccc(-c2cccc3[nH]c(CNCc4ccccc4)cc23)c1`, the IC50 is > 100 µM.

As to `Cc1cc(C(N)=S)cc(-c2ccc(O)cc2)c1`, the IC50 is > 100 µM.

In turn, `NC(=S)c1cccc(-c2cccc3c2ccn3CO)c1` returned an IC50 of 20 to 100 µM.

On to `NC(=S)c1cccc(-c2cn(CCCC(F)(F)F)c3cc(CNC(=O)Cc4csc(N)n4)ccc23)c1`, for which the 50% inhibitory concentration (IC50) is < 20 µM.

Regarding `NC(=S)c1cccc(-c2cn(CCCC(F)(F)F)c3cc(CNC(=O)c4cscn4)ccc23)c1`, the IC50 is < 20 µM.

Regarding `NC(=S)c1cccc(-c2cn(CC(CF)CF)c3cc(NCCc4c[nH]cn4)ccc23)c1`, the IC50 was < 20 µM.

`NC(=S)c1cccc(-c2c[nH]c3cc(C(N)=S)ccc23)c1` registered an IC50 of 20 to 100 µM.

Regarding `NC(=S)c1cccc(-c2cn(CCCC(F)(F)F)c3cc(CN4CCNCC4)ccc23)c1`, the IC50 lay within 20 to 100 µM.

Take `NC(=S)c1cccc(-c2cn(CCC(F)F)c3cc(CO)c(F)cc23)c1`: the IC50 is < 20 µM.

For `NC(=S)c1cccc(-c2cn(C3CCC3)c3cc(CO)ccc23)c1`, the IC50 was < 20 µM.

With `NC(=S)c1cccc(-c2cn(CCCC(F)(F)F)c3cc(CNCc4c[nH]cn4)ccc23)c1`, the IC50 is < 20 µM.

For `Cc1nc(CS(=O)(=O)NCc2ccc3c(-c4cccc(C(N)=S)c4)cn(C4CCN(S(C)(=O)=O)CC4)c3c2)cs1`, the IC50 is < 20 µM.

Take `NC(=S)c1cccc(-c2cn(CCCC(F)(F)F)c3cc(N)ccc23)n1`: the IC50 is < 20 µM.

Take `OCc1ccc2c(-c3cccc4c3CNC4=S)cn(CCC(F)F)c2c1`: the IC50 was < 20 µM.

With `NC(=S)c1cccc(-c2c[nH]c3cnc(N)cc23)c1`, the IC50 was > 100 µM.

With `CCCS(=O)(=O)N1CCC(n2cc(-c3cccc(C(N)=S)c3)c3ccc(CNc4nnc(N)s4)cc32)CC1`, the IC50 is < 20 µM.

As to `NC(=S)c1ccnc(-n2cccc2)c1`, the IC50 was > 100 µM.

Consider `NC(=S)c1cccc(-c2cn(CC3CCCC3)c3cc(N)ccc23)c1`, for which the IC50 was < 20 µM.

With `Cn1ccc2c(-c3cccc(C(N)=S)c3)cccc21`, the IC50 lay within 20 to 100 µM.

For the molecule `NC(=S)c1cccc(-c2cn(CC(CCF)CC(F)F)c3cc(N)ccc23)c1` (configuration not stated), the IC50 is < 20 µM.

On to `NC(=S)c1cccc(-c2cn(C3CCOCC3)c3cc(CNc4nnc(N)s4)ccc23)c1`, for which the IC50 is < 20 µM.

With `NC(=S)c1ccc(-c2ccc(O)cc2)s1`, the IC50 was > 100 µM.

`NC(=S)c1cccc(-c2cn(CCC(F)F)c3cc(CNc4c[nH]cn4)ccc23)c1`: the IC50 was < 20 µM.

Regarding `NC(=S)c1cccc(-c2cn(C3CCN(C(=O)CCCCc4cccc5c4C(=O)N(C4CCC(=O)NC4=O)C5=O)CC3)c3cc(CNc4nnc(N)s4)ccc23)c1` (configuration not stated), the IC50 was < 20 µM.

Consider `NC(=S)c1cc(-c2cccc3[nH]ccc23)ccc1O`, for which the IC50 is > 100 µM.

On to `Nc1ccc2c(-c3ccc4ccnc(N)c4c3)cn(CCC(F)F)c2c1`, for which the IC50 is < 20 µM.

With `Cc1ccc(C(N)=S)cc1-c1ccc(O)cc1`, the IC50 is > 100 µM.

For the molecule `NC(=S)c1cccc(-c2cn(CCC(F)F)c3cc(CO)cc(F)c23)c1`, the IC50 is < 20 µM.

Take `NC(=S)c1cc(-c2cccc3[nH]ccc23)ccc1N`: the IC50 is > 100 µM.

With `CS(=O)(=O)N1CCC(n2cc(-c3cccc(C(N)=S)c3)c3ccc(CNC(=O)Cc4ccc[nH]4)cc32)CC1`, the IC50 is < 20 µM.

As to `NC(=O)c1cc(-c2cn(CCC(F)F)c3cc(CO)ccc23)ccc1N`, the IC50 was < 20 µM.

Turning to `NC(=S)c1cccc(-c2c[nH]c3cc(N)ccc23)c1`, the IC50 lay in the range of 20 to 100 µM.

As to `NC(=S)c1cc(-c2cn(CCC(F)F)c3cc(CO)ccc23)ccc1O`, the IC50 was < 20 µM.

As for `NC(=S)c1cccc(-c2cn(CC3(O)CCC3)c3cc(CO)ccc23)c1`, the IC50 is < 20 µM.

Take `NC(=S)c1cc(-c2cn(CCC(F)F)c3cc(CO)ccc23)ccn1`: the IC50 was < 20 µM.

As for `NC(=S)c1cc(-c2cn(CC(CF)CF)c3cc(CO)ccc23)ccc1F`, the IC50 was < 20 µM.

For the molecule `Cc1c(CO)ccc2c(-c3cccc(C(N)=S)c3)cn(CCCC(F)(F)F)c12`, the IC50 is < 20 µM.

With `CC1(Cn2cc(-c3cccc(C(N)=S)c3)c3ccc(CO)cc32)CC1`, the IC50 is < 20 µM.

One may read the IC50 as the concentration at which inhibition is half-maximal. Low values mean higher potency, high ones lower potency.
